As usually defined, the IC50 is the concentration that gives 50% inhibition.

Our source for the IC50 and GI50 values is US11414429B2, “Compound or pharmaceutically acceptable salt thereof” (RIKEN, priority 2016, dated 2022).

The structures appear in SMILES notation.

In assay [1] the target is T1, tankyrase 2 (TNKS 2) (Homo sapiens, UniProt Q9H2K2).
T1 construct: 613-1, 116aa; made in house; host or cells: cell-free protein synthesis system
Briefly: Tankyrase inhibitory activity test (ELISA, self-polyADP ribosylation), tankyrase 2. Particulars: ELISA, self-polyADP ribosylation; class symbols; read-out: TNKS2 (inhibitory activity against tankyrase 2, IC50 value). The assay is classed as biochemical. Put shortly:
(§1)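 IC50 was fitted to residual self-polyADP-ribosylation activity, detected by HRP-streptavidin chemiluminescence. Plate-bound Flag fusions (TNKS1 1,024-1,327aa SAM+PARP; TNKS2 613-1,116aa ANK5+SAM+PARP, cell-free synthesized) saw compound for 10 min at room temperature in 50 mM Tris-HCl pH 8.0, 4 mM MgCl2, 0.2 mM DTT. Reaction with 225 μM NAD/25 μM 6-biotin-17-NAD solution ran 45 min at 30 °C.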
In general terms: ELISA stands for enzyme-linked immunosorbent assay.

The target in assay [2] is T2, tankyrase 1 (TNKS 1) (Homo sapiens, UniProt O95271).
T2 construct: 1,024-1,327aa; made in house; host or cells: cell-free protein synthesis system
As to the kind of experiment: Tankyrase inhibitory activity test (ELISA, self-polyADP ribosylation), tankyrase 1. The assay is classed as biochemical. As to conditions: ELISA, self-polyADP ribosylation; class symbols; read-out: TNKS1 (inhibitory activity against tankyrase 1, IC50 value). Put shortly:
as §1

Assay [3] deals with human colorectal cancer cell line, COLO-320DM. Briefly: Cell proliferation inhibitory activity test (Celltiter-Glo Luminescent Cell Viability Assay). The assay is classed as cell-based. Particulars: COLO-320DM cells, 96 hours, class symbols, read-out: COLO-320 DM (cell proliferation inhibitory activity, GI50 value). In short, it runs like this:
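GI50 is taken as the concentration halving cell growth versus 1% DMSO control, measured by ATP luminescence. Compound exposure lasted 96 h at 37° C. under 5% CO2, after overnight seeding in RPMI-1640 with 10% FBS and 2 mM glutamine.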

T1 sequence (Q9H2K2 613-1166): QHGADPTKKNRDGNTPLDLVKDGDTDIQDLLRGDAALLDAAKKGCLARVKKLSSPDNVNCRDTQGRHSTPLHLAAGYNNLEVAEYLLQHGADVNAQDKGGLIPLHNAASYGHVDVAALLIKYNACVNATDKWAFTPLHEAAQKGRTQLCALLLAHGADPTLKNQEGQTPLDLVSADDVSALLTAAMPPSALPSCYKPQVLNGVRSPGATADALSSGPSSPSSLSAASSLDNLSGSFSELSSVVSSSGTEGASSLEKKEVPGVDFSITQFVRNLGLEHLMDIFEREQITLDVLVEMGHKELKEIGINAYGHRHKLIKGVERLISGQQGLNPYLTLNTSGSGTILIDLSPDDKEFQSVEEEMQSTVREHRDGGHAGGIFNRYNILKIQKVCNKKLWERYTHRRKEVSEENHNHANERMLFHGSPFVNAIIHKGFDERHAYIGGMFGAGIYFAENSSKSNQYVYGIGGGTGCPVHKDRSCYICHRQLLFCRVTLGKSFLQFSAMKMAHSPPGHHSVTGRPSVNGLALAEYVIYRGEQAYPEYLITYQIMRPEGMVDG
T2 sequence (O95271 1024-1327): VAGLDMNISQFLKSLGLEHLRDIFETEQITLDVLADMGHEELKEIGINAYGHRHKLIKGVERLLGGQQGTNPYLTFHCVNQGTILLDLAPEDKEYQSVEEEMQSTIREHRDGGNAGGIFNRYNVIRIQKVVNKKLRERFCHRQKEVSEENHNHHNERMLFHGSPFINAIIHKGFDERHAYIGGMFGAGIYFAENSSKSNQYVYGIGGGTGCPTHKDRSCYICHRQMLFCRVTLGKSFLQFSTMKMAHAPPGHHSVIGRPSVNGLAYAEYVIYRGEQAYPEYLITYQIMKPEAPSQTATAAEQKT

`CN1CCCc2c1nc(N1CCC3(CC1)C(=O)N(C)c1cc(N4CCNCC4)cc(F)c13)[nH]c2=O` [Example 457, 4-fluoro-1-methyl-1′-(8-methyl-4-oxo-3,4,5,6,7,8-hexahydropyrido [2,3-d]pyrimidin-2-yl)-6-piperazin-1-yl-spiro[indole-3,4′-piperidine]-2(1H)-one]: the IC50 in assay [1] and in assay [2] was 20 to 200 nM in each case. Moreover, the GI50 in assay [3] lay in the range of 600 to 1000 nM.
As for `CN1CCCc2c1nc(N1CCC3(CC1)C(=O)N(C)c1cc(N4CCN(S(=O)(=O)N(C)C)CC4)cc(F)c13)[nH]c2=O` [Example 458, 4-[4-fluoro-1-meth-yl-1′-(8-methyl-4-oxo-3,4,5,6,7,8-hexahydropyrido [2,3-d]pyrimidin-2-yl)-2-oxospiro [indole-3,4′-piperi-dine]-6-yl]-N,N-di-methylpiperazine-1-sulfonamide], the IC50 in assay [1] was less than 20 nM; in assay [2], 20 to 200 nM. The GI50 in assay [3] lay in the range of 100 to 600 nM.
On to `CN1CCCc2c1nc(N1CCC3(CC1)C(=O)N(C)c1cc(N4CC(=O)N(Cc5ccccc5)C(=O)C4)cc(F)c13)[nH]c2=O` [Example 459, 1-benzyl-4-[4-fluoro-1-methyl-1′-(8-methyl-4-oxo-3,4,5,6,7,8-hexa-hydropyrido[2,3-d]pyrimidin-2-yl)-2-oxospiro[indole-3,4′-piperidine]-6-yl]piperazine-2,6-dione], for which the IC50 in assay [1] and in assay [2] was 20 to 200 nM throughout. For the same compound, the GI50 in assay [3] was in the range of 100 to 600 nM.
On to `CN1CCCc2c1nc(N1CCC3(CC1)C(=O)N(C)c1cc(N4CCN(C(=O)CO)CC4)cc(F)c13)[nH]c2=O` [Example 460, 4-fluoro-6-[4-(2-hydroxyacetyl)piperazin-1-yl]-1-meth-yl-1′-(8-methyl-4-oxo-3,4,5,6,7,8-hexahydropyrido [2,3-d]pyrimidin-2-yl)spiro[indole-3,4′-piperidine]-2-one], for which the IC50 in assay [1] and in assay [2] was less than 20 nM throughout. Besides, in assay [3], the GI50 is 100 to 600 nM.
With `CN1CCCc2c1nc(N1CCC3(CC1)C(=O)N(C)c1cc(N4CCN(S(C)(=O)=O)CC4)cc(F)c13)[nH]c2=O` [Example 461, 4-fluoro-1-methyl-1′-(8-methyl-4-oxo-3,4,5,6,7,8-hexahydropyrido[2,3-d]pyrimidin-2-yl)-6-(4-methylsulfonylpiperazin-1-yl)spiro[indole-3,4′-piperidine]-2(1H)-one], the IC50 in assay [1] and in assay [2] was less than 20 nM in each case. In addition, the GI50 in assay [3] was less than 100 nM.
As for `COC(=O)N1CCN(c2cc(F)c3c(c2)N(C)C(=O)C32CCN(c3nc4c(c(=O)[nH]3)CCCN4C)CC2)CC1` [Example 462, methyl 4-[4-fluoro-1-methyl-1′-(8-methyl-4-oxo-3,4,5,6,7,8-hexahydropyrido[2,3-d]pyrimidin-2-yl)-2-oxospiro[indole-3,4′-piperidine]-6-yl]piperazine-1-carboxylate], the half-maximal inhibitory concentration (IC50) was less than 20 nM in assay [1] and 20 to 200 nM in assay [2]. Moreover, the GI50 in assay [3] is less than 100 nM.
Taken in the same sequence, the figures for `C[C@@H]1CN(c2cc(F)c3c(c2)N(C)C(=O)C32CCN(c3nc4c(c(=O)[nH]3)CCCN4C)CC2)C[C@H](C)O1` [Example 463, 6-[cis-2,6-dimethylmorpholin-4-yl]-4-fluoro-1′-(8-methyl-4-oxo-3,4,5,6,7,8-hexahydropyrido[2,3-d]pyrimidin-2-yl)-1-methyl-spiro[indole-3,4′-piperidine]-2(1H)-one] were less than 20 nM, less than 20 nM and less than 100 nM.
Taken in the same sequence, the figures for `CN1CCCc2c1nc(N1CCC3(CC1)C(=O)N(C)c1cc(N4CCC(S(C)(=O)=O)CC4)cc(F)c13)[nH]c2=O` [Example 464, 4-fluoro-1-methyl-1′-(8-methyl-4-oxo-3,4,5,6,7,8-hexahydropyrido[2,3-d]pyrimidin-2-yl)l-6-(4-methylsulfonylpiperidin-1-yl)spiro[indole-3,4′-piperidine]-2(1H)-one] were less than 20 nM, less than 20 nM and 100 to 600 nM.
Taken in the same sequence, the figures for `COC1CCN(c2cc(F)c3c(c2)N(C)C(=O)C32CCN(c3nc4c(c(=O)[nH]3)CCCN4C)CC2)CC1` [Example 465, 4-fluoro-6-(4-methoxypiperidin-1-yl)-1-methyl-1′-(8-methyl-4-oxo-3,4,5,6,7,8-hexahydropyrido[2,3-d]pyrimidin-2-yl)spiro[indole-3,4′-piperidine]-2(1H)-one] were less than 20 nM, 20 to 200 nM and less than 100 nM.
Take `CN1CCCc2c1nc(N1CCC3(CC1)C(=O)N(C)c1cc(N4CCN(C(N)=O)CC4)cc(F)c13)[nH]c2=O` [Example 466, 4-[4-fluoro-1-methyl-1′-(8-methyl-4-oxo-3,4,5,6,7,8-hexahydropyrido[2,3-d]pyrimidin-2-yl)-2-oxospiro[indole-3,4′-piperidine]-6-yl]piperazine-1-carboxamide]: the IC50 was less than 20 nM in assay [1] and 20 to 200 nM in assay [2]. In assay [3], the GI50 fell in the range of 600 to 1000 nM.
Taken in the same sequence, the figures for `CN1CCCc2c1nc(N1CCC3(CC1)C(=O)N(C)c1cc(N4CCC(C#N)CC4)cc(F)c13)[nH]c2=O` [Example 467, 1-[4-fluoro-1-methyl-1′-(8-methyl-4-oxo-3,4,5,6,7,8-hexahydropyrido[2,3-]pyrimidin-2-yl)-2-oxospiro[indole-3,4′-piperidine]-6-yl]piperidine-4-carbonitrile] were less than 20 nM, 20 to 200 nM and less than 100 nM.
In the case of `O=C1N(CC2CCCO2)c2cccc(F)c2C12CCN(c1nc3c(c(=O)[nH]1)CCCN3)CC2` (stereo not drawn) [Example 469, 4-fluoro-1′-(4-hydroxy-5,6,7,8-tetrahydroypyrido[2,3-d]pyrimidin-2-yl)-1-(oxolan-2-ylmethyl)spiro[indole-3,4′-piperidine]-2-one], the IC50 is less than 20 nM in assay [1] and 20 to 200 nM in assay [2]. Besides, the GI50 in assay [3] lay in the range of 100 to 600 nM.
Taken in the same sequence, the figures for `COCCN1C(=O)C2(CCN(c3nc4c(c(=O)[nH]3)CCCN4)CC2)c2c(F)cccc21` [Example 470, 4-fluoro-1′-(4-hydroxy-5,6,7,8-tetrahydroxypyrido[2,3-d]pyrimidin-2-yl)-1-(2-methoxyethyl)spiro[indole-3,4′-piperidin]-2-one] were less than 20 nM, less than 20 nM and 100 to 600 nM.
Taken in the same sequence, the figures for `O=C1OC2(CCN(c3nc4c(c(=O)[nH]3)CCCN4)CC2)c2c(F)cc(N3CCOCC3)cc21` [Example 471, 7-fluoro-1′-(4-hydroxy-6,7-dihydro-5H-pyrido[2,3-d]pyrimidin-2-yl)-6-morpholino-4-ylspiro[2-benzofuran-3,4′-piperidin]-1-one] were less than 20 nM, less than 20 nM and 600 to 1000 nM.
The matching figures for `CC1CN(c2cc(F)c3c(c2)C(=O)OC32CCN(c3nc4c(c(=O)[nH]3)CCCN4)CC2)CC(C)O1` (stereo not drawn) [Example 472, 6-(2,6-dimethylmorpholin-4-yl)-4-fluoro-1′-(4-hydroxy-5,6,7,8-tetrahydropyrido[2,3-d]pyrimidin-2-yl) spiro[2-benzofuran-3,4′-piperidin]-1-one]: less than 20 nM, less than 20 nM and 600 to 1000 nM.
`COc1ccc(F)c2c1N(CC(C)(C)O)CC21CCN(c2nc3c(c(=O)[nH]2)CCCN3)CC1` [Example 473, 2-(4-fluoro-1-(2-hydroxy-2-methylpropyl)-7-methoxyspiro[indoline-3,4′-piperidin]-1′-yl)-5,6,7,8-tetrahydropyeido[2,3-d]pyrimidin-4(3H)-one]: the IC50 in assay [1] is less than 20 nM; in assay [2] it was 20 to 200 nM. In addition, in assay [3], the GI50 fell in the range of 600 to 1000 nM.
`COc1ccc(F)c2c1NCC21CCN(c2nc3c(c(=O)[nH]2)CCCN3)CC1` [Example 474, 2-(4-fluoro-7-methoxyspiro[indoline-3,4′-piperidin]-1′-yl)-5,6,7,8-tetrahydropyrido[2,3-d]pyrimidin-4(3H)-one]: the IC50 in assay [1] and in assay [2] was less than 20 nM each time. Further, the GI50 in assay [3] was in the range of 100 to 600 nM.
